Experimental data reported in EP4810483A1, “6- AND 5-HETEROARYL DERIVATIVES AND USE THEREOF” (CMS Research & Development Pte. Ltd., priority 2023, dated 2025).

Tests used:
CYP2D6 = CYP2D6 (Homo sapiens, UniProt P10635); experiment: Drug-drug interaction evaluation: CYP inhibition in human liver microsomes (cocktail method)
Method: (§1) The cocktail method using specific probe substrates for CYP1A2, CYP2C9, CYP2C19, CYP2D6 and CYP3A was used to evaluate the inhibitory effect of the compounds on the activity of human liver microsomal cytochrome P450 isoenzymes (CYP1A2, CYP2C9, CYP2C19, CYP2D6 and CYP3A).
(§2) Human liver microsomes, probe substrates, positive control inhibitors, and reduced nicotinamide adenine dinucleotide phosphate (NADPH).
(§3) To the corresponding wells of a reaction plate, 20 µL of substrate solution was added; to blank wells, 20 µL of potassium phosphate buffer was added.
(§4) To the corresponding wells, 2 µL of test compound and positive control working solution were added; to inhibitor-free and blank wells, 2 µL of solvent was added.
(§5) Human liver microsome working solution was prepared, and 158 µL of human liver microsome working solution was added to each well of the reaction plate.
(§6) The plate was pre-incubated at 37.0°C for 10 minutes.
(§7) To start the reaction, 20 µL of NADPH cofactor working solution was added to the reaction plate.
(§8) After incubation in a 37.0°C water bath with mixing for 10 minutes, 400 µL of stop solution was added to terminate the reaction.
(§9) The sample plate was centrifuged at 4000 rpm for 20 minutes.
(§10) 200 µL of supernatant was taken and mixed with 100 µL of pure water as diluent, and the plate was shaken to mix well.
(§11) Analysis was performed by liquid chromatography-tandem mass spectrometry (LC-MS/MS).
(§12) Using the percentage of remaining activity as the ordinate and the test compound concentration as the abscissa, a non-linear regression analysis was performed with a three-parameter or four-parameter model using XL fit software to calculate the IC50 value.
(§13) y = (max)/(1 + (((x)/(IC50)))^−hillslope) [formula]
(§14) y = min + (max−min)/(1 + (((x)/(IC50)))^−hillslope) [formula]
(§15) max = maximum enzyme activity; min = minimum enzyme activity; x = concentration of test compound or positive control inhibitor; y = enzyme activity at the corresponding concentration; hillslope = slope; IC50 = half-maximal inhibitory concentration. The four-parameter equation was used when the minimum enzyme activity was within ±10%; otherwise the three-parameter equation was used.

CYP1A2 = target: T1, CYP1A2 (Homo sapiens, UniProt P05177); experiment: as above
T1 sequence (P05177 1-516): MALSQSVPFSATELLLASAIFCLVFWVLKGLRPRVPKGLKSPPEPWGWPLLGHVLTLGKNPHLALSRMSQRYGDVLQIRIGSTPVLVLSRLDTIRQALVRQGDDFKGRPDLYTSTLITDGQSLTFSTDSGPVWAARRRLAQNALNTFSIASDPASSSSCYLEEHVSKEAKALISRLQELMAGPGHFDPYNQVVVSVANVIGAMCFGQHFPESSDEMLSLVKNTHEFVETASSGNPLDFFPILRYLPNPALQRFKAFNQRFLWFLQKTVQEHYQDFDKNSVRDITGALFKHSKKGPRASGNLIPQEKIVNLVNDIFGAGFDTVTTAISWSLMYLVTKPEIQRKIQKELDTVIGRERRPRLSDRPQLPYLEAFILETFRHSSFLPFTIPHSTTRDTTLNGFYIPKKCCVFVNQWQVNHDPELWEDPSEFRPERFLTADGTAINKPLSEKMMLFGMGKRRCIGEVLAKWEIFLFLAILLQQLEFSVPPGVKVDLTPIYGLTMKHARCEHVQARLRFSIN
Method: as §1, §2, §3, §4, §5, §6, §7, §8, §9, §10, §11, §12, §13, §14, §15

CYP2C19 = CYP2C19 (Homo sapiens, UniProt P33261); experiment: as above
CYP2C19, sequence (P33261 whole entry): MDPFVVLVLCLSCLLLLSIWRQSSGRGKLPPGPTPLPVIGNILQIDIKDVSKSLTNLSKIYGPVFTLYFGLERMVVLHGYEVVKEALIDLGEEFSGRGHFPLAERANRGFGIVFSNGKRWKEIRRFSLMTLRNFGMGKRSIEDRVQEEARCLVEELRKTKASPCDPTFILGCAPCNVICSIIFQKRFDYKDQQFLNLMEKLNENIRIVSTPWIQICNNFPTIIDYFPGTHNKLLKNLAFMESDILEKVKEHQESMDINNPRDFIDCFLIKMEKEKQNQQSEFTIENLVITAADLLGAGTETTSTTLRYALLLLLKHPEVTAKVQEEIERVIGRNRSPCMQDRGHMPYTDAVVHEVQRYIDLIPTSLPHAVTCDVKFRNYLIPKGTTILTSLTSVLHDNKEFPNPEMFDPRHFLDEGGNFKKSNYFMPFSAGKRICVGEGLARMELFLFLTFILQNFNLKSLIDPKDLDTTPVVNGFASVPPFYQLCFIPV
Method: as §1, §2, §3, §4, §5, §6, §7, §8, §9, §10, §11, §12, §13, §14, §15

CYP3A4 = CYP3A4 (Homo sapiens, UniProt P08684); experiment: as above
CYP3A4, sequence (P08684 2-503): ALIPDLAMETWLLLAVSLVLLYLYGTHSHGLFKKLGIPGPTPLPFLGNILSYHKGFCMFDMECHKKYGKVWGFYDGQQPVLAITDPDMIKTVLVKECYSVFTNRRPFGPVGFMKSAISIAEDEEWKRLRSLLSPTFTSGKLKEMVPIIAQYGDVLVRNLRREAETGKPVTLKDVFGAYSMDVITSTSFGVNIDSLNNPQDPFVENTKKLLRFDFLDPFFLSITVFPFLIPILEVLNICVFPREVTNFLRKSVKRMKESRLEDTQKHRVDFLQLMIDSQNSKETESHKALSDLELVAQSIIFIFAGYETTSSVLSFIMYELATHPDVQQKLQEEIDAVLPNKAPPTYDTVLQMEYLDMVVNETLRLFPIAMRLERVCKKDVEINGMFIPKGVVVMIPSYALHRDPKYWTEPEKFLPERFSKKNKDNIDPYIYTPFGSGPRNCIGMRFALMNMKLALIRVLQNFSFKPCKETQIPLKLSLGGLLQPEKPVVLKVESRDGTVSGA
Method: as §1, §2, §3, §4, §5, §6, §7, §8, §9, §10, §11, §12, §13, §14, §15

CYP2C9 = CYP2C9 (Homo sapiens, UniProt P11712); experiment: as above
CYP2C9, sequence (P11712 whole entry): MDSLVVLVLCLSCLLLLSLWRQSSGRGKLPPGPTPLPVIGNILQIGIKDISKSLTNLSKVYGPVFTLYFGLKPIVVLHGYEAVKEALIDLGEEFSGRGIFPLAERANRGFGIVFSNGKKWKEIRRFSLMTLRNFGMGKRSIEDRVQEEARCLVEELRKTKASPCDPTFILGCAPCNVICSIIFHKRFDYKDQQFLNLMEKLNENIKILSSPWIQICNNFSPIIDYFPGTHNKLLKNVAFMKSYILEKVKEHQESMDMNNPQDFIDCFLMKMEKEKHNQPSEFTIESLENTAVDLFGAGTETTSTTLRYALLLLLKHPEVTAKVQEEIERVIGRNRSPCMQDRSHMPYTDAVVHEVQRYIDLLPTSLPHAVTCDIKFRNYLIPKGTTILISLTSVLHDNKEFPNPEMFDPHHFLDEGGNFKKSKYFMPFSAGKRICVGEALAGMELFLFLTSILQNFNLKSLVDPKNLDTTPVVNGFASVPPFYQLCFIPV
Method: as §1, §2, §3, §4, §5, §6, §7, §8, §9, §10, §11, §12, §13, §14, §15

hKCNQ2/3 = target: T2, hKCNQ2/3 (Homo sapiens, UniProt O43525+O43526); experiment: cell-based
T2 construct: expressed in transfected cells; host or cells: CHO
T2 sequence (O43526 whole entry): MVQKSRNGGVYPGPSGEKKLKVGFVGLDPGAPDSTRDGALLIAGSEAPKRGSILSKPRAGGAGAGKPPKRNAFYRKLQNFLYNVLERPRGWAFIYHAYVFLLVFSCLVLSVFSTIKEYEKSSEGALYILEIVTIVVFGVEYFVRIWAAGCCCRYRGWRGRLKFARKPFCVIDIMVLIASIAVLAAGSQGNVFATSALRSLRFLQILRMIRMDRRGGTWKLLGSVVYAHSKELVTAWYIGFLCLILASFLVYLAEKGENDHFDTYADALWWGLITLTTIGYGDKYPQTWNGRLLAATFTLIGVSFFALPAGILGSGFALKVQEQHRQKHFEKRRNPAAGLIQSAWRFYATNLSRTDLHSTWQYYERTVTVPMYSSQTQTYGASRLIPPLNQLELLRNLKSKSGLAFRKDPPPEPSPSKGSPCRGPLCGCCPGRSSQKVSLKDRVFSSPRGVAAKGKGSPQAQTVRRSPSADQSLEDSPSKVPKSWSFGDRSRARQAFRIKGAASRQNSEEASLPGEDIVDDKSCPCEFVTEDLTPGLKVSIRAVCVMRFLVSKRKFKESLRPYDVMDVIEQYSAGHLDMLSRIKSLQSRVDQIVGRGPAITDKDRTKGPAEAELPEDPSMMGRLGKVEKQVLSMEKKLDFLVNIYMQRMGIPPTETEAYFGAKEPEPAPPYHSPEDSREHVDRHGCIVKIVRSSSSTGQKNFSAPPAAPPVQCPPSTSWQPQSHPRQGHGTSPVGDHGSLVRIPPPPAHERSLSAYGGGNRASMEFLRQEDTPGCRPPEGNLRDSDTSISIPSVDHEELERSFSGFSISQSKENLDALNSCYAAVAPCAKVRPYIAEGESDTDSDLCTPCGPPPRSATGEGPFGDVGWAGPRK
T2 sequence (O43525 whole entry): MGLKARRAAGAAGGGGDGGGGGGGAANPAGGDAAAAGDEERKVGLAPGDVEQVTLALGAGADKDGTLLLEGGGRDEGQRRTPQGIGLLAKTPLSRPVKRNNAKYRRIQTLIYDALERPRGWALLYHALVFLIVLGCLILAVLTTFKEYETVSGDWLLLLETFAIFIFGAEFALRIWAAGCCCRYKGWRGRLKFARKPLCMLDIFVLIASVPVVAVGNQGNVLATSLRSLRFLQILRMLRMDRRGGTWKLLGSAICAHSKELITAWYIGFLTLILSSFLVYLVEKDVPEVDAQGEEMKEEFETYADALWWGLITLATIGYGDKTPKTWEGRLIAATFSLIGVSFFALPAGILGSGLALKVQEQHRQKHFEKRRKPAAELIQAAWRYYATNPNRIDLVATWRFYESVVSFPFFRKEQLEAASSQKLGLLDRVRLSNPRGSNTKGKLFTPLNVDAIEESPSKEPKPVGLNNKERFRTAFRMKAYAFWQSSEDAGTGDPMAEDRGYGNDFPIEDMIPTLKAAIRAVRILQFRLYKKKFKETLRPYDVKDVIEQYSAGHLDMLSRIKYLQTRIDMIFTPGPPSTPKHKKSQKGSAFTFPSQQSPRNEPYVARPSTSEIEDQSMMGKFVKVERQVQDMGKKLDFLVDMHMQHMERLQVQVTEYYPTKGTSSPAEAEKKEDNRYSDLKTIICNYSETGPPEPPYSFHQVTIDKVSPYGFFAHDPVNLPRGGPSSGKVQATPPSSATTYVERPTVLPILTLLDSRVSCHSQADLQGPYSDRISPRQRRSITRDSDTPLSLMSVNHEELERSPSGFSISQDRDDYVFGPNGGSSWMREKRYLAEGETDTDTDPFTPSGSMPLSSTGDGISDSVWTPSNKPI
Source text: Test Method 1: hKCNQ2/3 Thallium Flux Assay
Test Objective: To test the in vitro concentration-response relationship of compounds using FLIPR thallium flux assay in CHO cell lines stably expressing hKCNQ2/3.
According to the split ratio, the cells were transferred to another T-75 flask containing complete cell growth medium. Note: To maintain logarithmic growth, the cells should be kept in a subconfluent monolayer state. Based on the cell doubling time, the cells were passaged every 2-3 days.
• (1) Day 1 - Cell preparation: Cells were digested as described above, and cell density and viability were determined using a Cell Countess. The volume of the single-cell suspension was adjusted with complete cell growth medium. Then, hKCNQ2/3_CHO cells were seeded onto PDL-precoated 384-well plates at a density of approximately 20,000 cells/well (30 µL/well). The plates were then incubated overnight in a 37°C, 5% CO2 humidified air incubator. • (2) Day 2 - Compound preparation: Test compounds were diluted with dimethyl sulfoxide (DMSO) to stock concentrations and stored in a -20°C freezer. A compound addition program was set up on the ECHO liquid handler, and compounds were added to the plates using the ECHO liquid handler. Retigabine (RTG) was used as a positive control at a highest concentration of 100 µM with 3-fold serial dilutions for a total of 9 doses. Buffer containing 5 mM K^+ and 1 mM Tl^+ was added to the plates. Notes: 1) K2SO4 and Tl2SO4 were prepared in 1× chloride-free buffer. Depending on the voltage-gated potassium channel involved, the concentrations of Tl^+ and K^+ should be adjusted. Tl^+ concentration is approximately 0.5-5 mM, and K^+ concentration is approximately 5-30 mM. 2) Each 1 mM solution of K2SO4 and Tl2SO4 contains 2 mM K^+ and Tl^+; the final concentration should be calculated based on the ion concentration. 3) TlCl readily precipitates and a chloride-free buffer is required. • (3) Day 2 -Assay testing: Once the cells reached the desired confluence, the cell assay plates were removed from the incubator. Assay buffer and diluted Tl^+ dye (Molecular Devices # R8222) were prepared. The medium was discarded using a Bravo liquid handler, and 25 µL of Tl^+ dye was added to each well. After 1 hour of incubation, the cell assay plates, composite plates and FLIPR tips were placed in the FLIPR^TETRA (Molecular Devices, USA) for FLIPR detection. After setting up the tips, baseline readings were taken for 60 seconds, then 12.5 µL was added from the composite plate (3×) to the cell assay plate, and data were recorded for at least 5 minutes. • (4) Data processing: Maximum signals were generated by the FLIPR software. […] Data quality control: S/B > 2.00, Z factor > 0.50.
• (1) Day 1 - Cell preparation: Cells were digested as described above, and cell density and viability were determined using a Cell Countess. The volume of the single-cell suspension was adjusted with complete cell growth medium. Then, hKCNQ2/3_CHO cells were seeded onto PDL-precoated 384-well plates at a density of approximately 20,000 cells/well (30 µL/well). The plates were then incubated overnight in a 37°C, 5% CO2 humidified air incubator. • (2) Day 2 - Compound preparation: Test compounds were diluted with dimethyl sulfoxide (DMSO) to stock concentrations and stored in a -20°C freezer. A compound addition program was set up on the ECHO liquid handler, and compounds were added to the plates using the ECHO liquid handler. Retigabine (RTG) was used as a positive control at a highest concentration of 100 µM with 3-fold serial dilutions for a total of 9 doses. Buffer containing 5 mM K^+ and 1 mM Tl^+ was added to the plates. Notes: 1) K2SO4 and Tl2SO4 were prepared in 1× chloride-free buffer. Depending on the voltage-gated potassium channel involved, the concentrations of Tl^+ and K^+ should be adjusted. Tl^+ concentration is approximately 0.5 mM -5 mM, and K^+ concentration is approximately 5 mM -30 mM.

[1] = test system: maximal electroshock-induced epilepsy model; experiment: Maximal electroshock-induced epilepsy model, behavioral pharmacodynamics; assay type: in vivo; settings: dose 5 mg/kg, oral, one hour before electrical stimulation; male CD-1 mice
Source text: Assay Example 2: Evaluation of the behavioral pharmacodynamics of the test compounds in a maximal electroshock-induced epilepsy model
This study used behavioral tests in male CD-1 mice to investigate the effects of test compounds on acute epileptic seizures behavior induced by maximal electroshock.
Male CD-1 mice (25 to 35g) were used as the experimental animals and fed with standard feed (Beijing Vital River Laboratory Animal Technology Co., Ltd.).
After arriving at the animal facility, the experimental animals needed to acclimatize for at least one week. The mice were observed daily for vital signs, and randomly divided into groups according to their body weights one day before the drug administration. One hour before the electrical stimulation, different dosages of the test compound were orally administered to each group. On the day of the assay, the male CD-1 mice in each group were anesthetized locally at the cornea with 2% lidocaine. Then, silver bipolar electrodes were used to electrically stimulate the cornea of the mice with 18 mA, 60 Hz, a pulse width of 0.6 ms, and a stimulation time of 1 s to induce seizures. Subsequently, the latency of seizures and the duration of limb rigidity in mice after the electrical stimulation were observed, and the protection rate from seizures for each group was statistically analyzed.

CYP2D6, sequence (P10635 whole entry): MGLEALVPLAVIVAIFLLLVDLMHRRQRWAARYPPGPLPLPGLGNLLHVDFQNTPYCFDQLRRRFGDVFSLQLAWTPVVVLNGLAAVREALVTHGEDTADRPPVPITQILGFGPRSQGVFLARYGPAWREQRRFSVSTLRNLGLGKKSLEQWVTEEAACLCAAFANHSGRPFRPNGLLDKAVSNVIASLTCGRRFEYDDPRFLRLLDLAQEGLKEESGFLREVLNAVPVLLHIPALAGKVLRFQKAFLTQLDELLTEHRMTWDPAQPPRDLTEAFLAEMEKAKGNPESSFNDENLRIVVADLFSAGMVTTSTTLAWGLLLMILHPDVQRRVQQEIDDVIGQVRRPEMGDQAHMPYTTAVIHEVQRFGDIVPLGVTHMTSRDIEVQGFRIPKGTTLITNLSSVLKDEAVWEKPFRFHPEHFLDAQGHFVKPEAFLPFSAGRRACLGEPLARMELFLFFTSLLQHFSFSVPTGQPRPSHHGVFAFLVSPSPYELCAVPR

SMILES	IC50 (CYP2D6) [µM]	IC50 (CYP1A2) [µM]	IC50 (CYP2C19) [µM]	IC50 (CYP3A4) [µM]	IC50 (CYP2C9) [µM]	EC50 (hKCNQ2/3) [µM]	Seizure incidence (%) [1] [%]
Cc1c(NC(=O)CC2(C)CC2)n(C)c2cc(Nc3ccc(F)cc3)ccc12 [Compound 12]	15	20	13	37	11	0.8	–
Cc1c(NC(=O)CC(C)(C)C)n(C)c2cc(Nc3ncc(F)cc3F)ccc12 [Compound 26]	> 50	19	44	> 50	> 50	0.4	–
Cc1cc(F)cnc1Nc1ccc2c(C)c(NC(=O)CC(C)(C)C)n(C)c2c1 [Compound 31]	> 50	> 50	> 50	> 50	> 50	–	16.7
Cc1c(NC(=O)CC2(C)CC2)n(C)c2cc(Nc3ncc(F)cc3F)ccc12 [Compound 35]	> 50	> 50	> 50	> 50	> 50	0.49	–
